# In patent US20210101874A1, “MICROBIOCIDAL OXADIAZOLE DERIVATIVES” (SYNGENTA PARTICIPATIONS AG, priority 2017, published 2021):
# Experiments:
# [1] = tested on: Puccinia recondita f. sp. Tritici; experiment: Puccinia recondita f. sp. tritici / wheat / leaf disc preventative (brown rust); format: in vivo; conditions: foliar, 200 ppm in the applied formulation, wheat leaf segments cv. Kanzler, inoculated 1 day after application, compared to untreated, assessed 7 to 9 days after application, read-out: disease control
# Method: Leaf disks or leaf segments of various plant species are cut from plants grown in a greenhouse. The cut leaf disks or segments are placed in multiwell plates (24-well format) onto water agar. The leaf disks are sprayed with a test solution before (preventative) or after (curative) inoculation. Compounds to be tested are prepared as DMSO solutions (max. 10 mg/ml) which are diluted to the appropriate concentration with 0.025% Tween20 just before spraying. The inoculated leaf disks or segments are incubated under defined conditions (temperature, relative humidity, light, etc.) according to the respective test system. A single evaluation of disease level is carried out 3 to 14 days after inoculation, depending on the pathosystem. Percent disease control relative to the untreated check leaf disks or segments is then calculated. Wheat leaf segments cv. Kanzler were placed on agar in multiwell plates (24-well format) and sprayed with the formulated test compound diluted in water. The leaf disks were inoculated with a spore suspension of the fungus 1 day after application. The inoculated leaf segments were incubated at 19° C. and 75% relative humidity (rh) under a light regime of 12 hours light/12 hours darkness in a climate cabinet and the activity of a compound was assessed as percent disease control compared to untreated when an appropriate level of disease damage appears in untreated check leaf segments (7 to 9 days after application). The following compounds at 200 ppm in the applied formulation give at least 80% disease control in this test when compared to untreated control leaf disks under the same conditions, which show extensive disease development.
# [2] = tested on: Glomerella lagenarium (Colletotrichum lagenarium); experiment: Glomerella lagenarium (Colletotrichum lagenarium) liquid culture / cucumber / preventative (anthracnose); format: cell-based; conditions: Colletotrichum orbiculare; 20 ppm in the applied formulation; conidia in PDB nutrient broth, 24° C.; 3 to 4 days after application; compared to untreated; read-out: disease control (inhibition of growth measured photometrically)
# Method: Mycelia fragments or conidia suspensions of a fungus prepared either freshly from liquid cultures of the fungus or from cryogenic storage, are directly mixed into nutrient broth. DMSO solutions of the test compound (max. 10 mg/ml) are diluted with 0.025% Tween20 by a factor of 50 and 10 µl of this solution is pipetted into a microtiter plate (96-well format). The nutrient broth containing the fungal spores/mycelia fragments is then added to give an end concentration of the tested compound. The test plates are incubated in the dark at 24° C. and 96% relative humidity. The inhibition of fungal growth is determined photometrically after 2 to 7 days, depending on the pathosystem, and percent antifungal activity relative to the untreated check is calculated. Conidia of the fungus from cryogenic storage are directly mixed into nutrient broth (PDB—potato dextrose broth). After placing a (DMSO) solution of test compound into a microtiter plate (96-well format), the nutrient broth containing the fungal spores is added. The test plates are incubated at 24° C. and the inhibition of growth is measured photometrically 3 to 4 days after application. The following compounds at 20 ppm in the applied formulation give at least 80% disease control in this test when compared to untreated control under the same conditions, which show extensive disease development.
SMILES,pest or weed control at 200 ppm [1] [%],inhibition at 20 ppm [2] [%]
"COC(=O)CCS(=O)(=O)N(C)Cc1ccc(-c2noc(C(F)(F)F)n2)cc1 [Compound 1.48, methyl 3-[methyl-[[4-[5-(trifluoromethyl)-1,2,4-oxadiazol-3-yl]phenyl]methyl]sulfamoyl]propanoate]",≥ 80,≥ 80
"CCNS(=O)(=O)N(Cc1ccc(-c2noc(C(F)(F)F)n2)cc1)OC [Compound 1.18, 3-[4-[[ethylsulfamoyl (methoxy)amino]methyl]phenyl]-5-(trifluoromethyl)-1,2,4-oxadiazole]",≥ 80,≥ 80
"C/C=C/S(=O)(=O)NCc1ccc(-c2noc(C(F)(F)F)n2)cc1 [Compound 2.10, (E)-N-[[4-[5-(trifluoromethyl)-1,2,4-oxadiazol-3-yl]phenyl]methyl] prop-1-ene-1-sulfonamide]",≥ 80,≥ 80
"O=S(=O)(CC1CC1(Cl)Cl)NCc1ccc(-c2noc(C(F)(F)F)n2)c(F)c1 (stereo not shown) [Compound 3.16, 1-(2,2-dichlorocyclopropyl)-N-[[3-fluoro-4-[5-(trifluoromethyl)-1,2,4-oxadiazol-3-yl]phenyl]methyl] methanesulfonamide]",≥ 80,≥ 80
"CCN(Cc1ccc(-c2noc(C(F)(F)F)n2)cc1)S(=O)(=O)Cc1ccccc1 [Compound 1.60, N-ethyl-1-phenyl-N-[[4-[5-(trifluoromethyl)-1,2,4-oxadiazol-3-yl]phenyl]methyl] methanesulfonamide]",≥ 80,≥ 80
"COC(=O)CS(=O)(=O)NCc1ccc(-c2noc(C(F)(F)F)n2)cc1F [Compound 2.37, methyl 2-[[2-fluoro-4-[5-(trifluoromethyl)-1,2,4-oxadiazol-3-yl]phenyl]methyl-sulfamoyl] acetate]",≥ 80,≥ 80
"CN(Cc1ccc(-c2noc(C(F)(F)F)n2)cc1)S(=O)(=O)N1CCCC1 [Compound 1.44, N-methyl-N-[[4-[5-(trifluoromethyl)-1,2,4-oxadiazol-3-yl]phenyl]methyl] pyrrolidine-1-sulfonamide]",≥ 80,≥ 80
"O=S(=O)(NCc1ccc(-c2noc(C(F)(F)F)n2)cc1)N1CCCC1 [Compound 3.13, N-[[4-[5-(trifluoromethyl)-1,2,4-oxadiazol-3-yl]phenyl]methyl] pyrrolidine-1-sulfonamide]",≥ 80,≥ 80
"CON(Cc1ccc(-c2noc(C(F)(F)F)n2)cn1)S(=O)(=O)c1ccccc1 [Compound 1.111, N-methoxy-N-[[5-[5-(trifluoromethyl)-1,2,4-oxadiazol-3-yl]-2-pyridyl]methyl] benzenesulfonamide]",≥ 80,≥ 80
"CCCCS(=O)(=O)NCc1ccc(-c2noc(C(F)(F)F)n2)cc1 [Compound 2.12, N-[[4-[5-(trifluoromethyl)-1,2,4-oxadiazol-3-yl]phenyl]methyl] butane-1-sulfonamide]",≥ 80,≥ 80
"CCCNS(=O)(=O)N(Cc1ccc(-c2noc(C(F)(F)F)n2)cc1)OC [Compound 1.22, 3-[4-[[methoxy (propylsulfamoyl)amino]methyl]phenyl]-5-(trifluoromethyl)-1,2,4-oxadiazole]",≥ 80,≥ 80
"CC(C)N(Cc1ccc(-c2noc(C(F)(F)F)n2)cc1)S(=O)(=O)N1CCCC1 [Compound 1.97, N-isopropyl-N-[[4-[5-(trifluoromethyl)-1,2,4-oxadiazol-3-yl]phenyl]methyl] pyrrolidine-1-sulfonamide]",≥ 80,≥ 80
"CCCN(Cc1ccc(-c2noc(C(F)(F)F)n2)cc1)S(=O)(=O)N1CCCC1 [Compound 1.68, N-propyl-N-[[4-[5-(trifluoromethyl)-1,2,4-oxadiazol-3-yl]phenyl]methyl] pyrrolidine-1-sulfonamide]",≥ 80,≥ 80
"COC(=O)CS(=O)(=O)N(C)Cc1ccc(-c2noc(C(F)(F)F)n2)cc1 [Compound 1.53, methyl 2-[methyl-[[4-[5-(trifluoromethyl)-1,2,4-oxadiazol-3-yl]phenyl]methyl]sulfamoyl]acetate]",≥ 80,≥ 80
"CCN(Cc1ccc(-c2noc(C(F)(F)F)n2)cc1)S(=O)(=O)N1CCCC1 [Compound 1.32, N-ethyl-N-[[4-[5-(trifluoromethyl)-1,2,4-oxadiazol-3-yl]phenyl]methyl] pyrrolidine-1-sulfonamide]",≥ 80,≥ 80
"COC(=O)CCS(=O)(=O)N(Cc1ccc(-c2noc(C(F)(F)F)n2)cc1)OC [Compound 1.93, methyl 3-[methoxy-[[4-[5-(trifluoromethyl)-1,2,4-oxadiazol-3-yl]phenyl]methyl]sulfamoyl]propanoate]",≥ 80,≥ 80
"CCN(Cc1ccc(-c2noc(C(F)(F)F)n2)cc1)S(=O)(=O)CCC(=O)OC [Compound 1.36, methyl 3-[ethyl-[[4-[5-(trifluoromethyl)-1,2,4-oxadiazol-3-yl]phenyl]methyl]sulfamoyl]propanoate]",≥ 80,≥ 80
"O=S(=O)(NCc1ccc(-c2noc(C(F)(F)F)n2)c(F)c1)c1ccccc1 [Compound 3.9, N-[[3-fluoro-4-[5-(trifluoromethyl)-1,2,4-oxadiazol-3-yl]phenyl]methyl] benzenesulfonamide]",≥ 80,≥ 80
"Cc1ccc(S(=O)(=O)NCc2ccc(-c3noc(C(F)(F)F)n3)cc2)s1 [Compound 3.11, 5-methyl-N-[[4-[5-(trifluoromethyl)-1,2,4-oxadiazol-3-yl]phenyl]methyl] thiophene-2-sulfonamide]",≥ 80,≥ 80
"CC(C)S(=O)(=O)N(C)Cc1ccc(-c2noc(C(F)(F)F)n2)cc1 [Compound 1.54, N-methyl-N-[[4-[5-(trifluoromethyl)-1,2,4-oxadiazol-3-yl]phenyl]methyl] propane-2-sulfonamide]",≥ 80,≥ 80
"CCCN(Cc1ccc(-c2noc(C(F)(F)F)n2)cc1)S(=O)(=O)c1ccn(C)n1 [Compound 1.65, 1-methyl-N-propyl-N-[[4-[5-(trifluoromethyl)-1,2,4-oxadiazol-3-yl]phenyl]methyl] pyrazole-3-sulfonamide]",≥ 80,≥ 80
"CCCN(Cc1ccc(-c2noc(C(F)(F)F)n2)cc1)S(=O)(=O)NC [Compound 1.80, 3-[4-[[methylsulfamoyl (propyl)amino]methyl]phenyl]-5-(trifluoromethyl)-1,2,4-oxadiazole]",≥ 80,≥ 80
"CCCN(Cc1ccc(-c2noc(C(F)(F)F)n2)cc1)S(=O)(=O)CC1CCOC1 (stereo not shown) [Compound 1.71, N-propyl-1-tetrahydrofuran-3-yl-N-[[4-[5-(trifluoromethyl)-1,2,4-oxadiazol-3-yl]phenyl]methyl] methanesulfonamide]",≥ 80,≥ 80
